For data set [1], the system named is DsaD/E complex. Nature of the data set: Preparative-scale Cα/Cβ-deuteration with DsaD and DsaE clarified lysates in D2O. It is filed as biochemical, Streptomyces scopuliridis. On the procedure:
FIG. 5. ^1H NMR analysis of site-selective deuteration of L-Leu. Reaction conditions: 20 mM L-Leu 2.5% v/v DsaD clarified lysate, 2.5% v/v DsaE clarified lysate (when needed), 50 mM sodium phosphate (pD 8.4), 0.1 mM PLP, D2O (99.9% D).
FIG. 8. Preparative-scale and site-selective deuteration of amino acids. Conditions: 10-20 mM amino acid, 2.5% v/v DsaD clarified lysate, 2.5% v/v DsaE clarified lysate, 50 mM sodium phosphate (pD 8.4), 0.1 mM PLP, D2O (99.9%).
General procedure for milligram-scale biocatalytic deuteration: A 4-dram scintillation vial was charged with amino acid (10-20 mM final concentration), Na3PO4 buffer pD 8.4 (50 mM final concentration), PLP (100 μM final concentration), DsaD clarified cell lysate (2.5% v/v), DsaE clarified cell lysate (if applicable) (2.5% v/v), and D2O (or dH2O) to the appropriate final volume. The reaction vessel was placed in an incubator at 37° C. for 16 h. Reaction progress was monitored by UPLC-MS. After reaction completion, the reaction mixture was quenched with an equivalent volume of acetone and centrifuged (4,000 rpm, 10 min) to remove denatured protein. Supernatant was transferred to a clean beaker, the decanted supernatant was concentrated to remove acetone by rotary evaporation and loaded onto a preparative reverse-phase C18 column pre-equilibrated with water. Purification was performed via gradient elution on an Isolera One Flash Purification system (Biotage). Fractions bearing product (confirmed by UPLC-MS sampling of fraction tubes) were pooled and dried by rotary evaporation. The product was then resuspended in a minimal quantity of water, transferred to a pre-weighed 20 mL vial, frozen, and lyophilized.

In data set [2] the test system is DsaD/E complex. Briefly: Analytical-scale Cα/Cβ H/D exchange with purified DsaD and DsaE. It is filed as biochemical, Streptomyces scopuliridis. The note with it: 10 mM substrate, 5 μM DsaD, 50 μM DsaE (10:1), 37° C., 8 h. Here is the method: FIGS. 3A-3C. Optimization of H/D exchange reactions and evaluation of the substrate scope. FIG. 3A. Optimization of Cβ-deuteration by increasing equivalents of partner protein DsaE. FIG. 3B. Evaluation of substrate scope of dual-protein-catalyzed Cα/Cβ deuteration under optimized conditions. FIG. 3C. UV-visible spectroscopy used to evaluate non-native substrate binding to DsaD. Reaction conditions: 10 mM amino acid substrate, 50 μM DsaE, 5 μM DsaD (10:1), 50 mM sodium phosphate (pD 8.4), 0.1 mM PLP, D2O, 37° C., 8 h. Reactions performed in duplicate, and percentage isotope incorporation is reported as the average of the replicates.
General procedure analytical scale deuteration reactions: α/β deuteration reactions were performed as follows. A 1 mL Eppendorf tube was charged with amino acid (10-20 mM final concentration), Na3PO4 buffer pD 8.4 (50 mM final concentration), PLP (100 μM final concentration), purified enzymes or appropriate lysate and D2O and to the appropriate final volume (typically 50 μL). Reactions were carried out at 37° C. for 8 h and quenched by the addition of 3 volumes of acetonitrile. Precipitated biomolecules were pelleted by centrifugation (16,000×g, 10 min) and samples were processed as described below.
(§1) Marfey's derivatization of analytical scale reactions: Derivatization of the resulting analytical scale product mixture (to increase overall signal and enable reverse phase chromatographic analysis) was achieved by treatment with Marfey's reagent^2 (1-fluoro-2-4-dinitrophenyl-5-L-alanine amide, L-FDAA) using the following protocol. 25 μL of quenched reaction mix (final amine concentration, 1.6 mM) was added to an Eppendorf tube with 50 μL of 15 mM NaHCO3 (final concentration, 5 mM) and 75 μL of 5 mM L-FDAA (final concentration, 2.5 mM). Derivatization reactions were carried out for 10-12 h before quenching with 150 μL of 60 mM HCl dissolved in acetonitrile. Final reaction analysis was carried out by UPLC-DAD-MS and quantitation as described below.
(§2) Quantitation of deuteration in analytical scale reactions: Deuteration reactions were analyzed by UPLC-DAD-MS with single ion recording (SIR) channels set to record a spectrum with the appropriate isotopic mass in positive mode. The area under the curve of recorded SIR peaks was obtained and normalized to account for natural isotopic abundance distributions (e.g. ^13C, ^15N, ^2H, ^34S, etc). Percent deuterium incorporation was calculated by the formula below. These measurements were carried out in an iterative fashion to measure Cα deuteration and Cβ deuteration.

The next data set addresses DsaD (Streptomyces scopuliridis, UniProt A0A0D5CCB2). Briefly: UV-vis spectroscopy of amino acid binding to DsaD. As to conditions: 20 μM DsaD, pH 8.0, 25° C. Here is the method:
UV-Vis Spectroscopy: Data were collected between 600 and 300 nm on a UV-2600 Shimadzu spectrophotometer (Shimadzu, Kyoto, Japan) with a semi-micro quartz cuvette (Starna Cells, Atascadero, California, USA) at 25° C. DsaD stock solutions were diluted to 20 μM in 50 mM sodium phosphate pH 8.0. For observation of substrate binding, amino acids were added at concentrations ranging from 2.5-10 mM. Spectra from 600-300 nm were collected after a 2-minute incubation period. Amino acid stocks were prepared as 100 mM stocks in deionized water.

Substrate in data set [3]: CC[C@H](C)[C@H](N)C(=O)O
Briefly: Steady-state kinetic analysis of H/D exchange of L-Ile by DsaD with partner protein DsaE. The note with it: pH 8.4. It is filed as biochemical, Streptomyces scopuliridis. On the procedure:
(§3) FIGS. 2A-2E. Steady-state kinetic analysis of H/D exchange by the Ile epimerization system. FIG. 2A. Steady-state kinetic analysis describing Cβ-deuteration^a of L-Ile under varied equivalents of partner enzyme DsaE. FIG. 2B. Steady-state kinetic analysis of Cβ-deuteration rates^a at a constant 1 mM L-Ile, measured against increasing equivalents of DsaE. FIG. 2C. Steady-state kinetic analysis of Cα-deuteration^a of L-Ile in the presence and absence of partner protein DsaE. FIG. 2D. Proposed mechanism of selective deuterium incorporation at Cα and Cβ catalyzed by dual protein catalysis. FIG. 2E. UV-visible spectrum of DsaD in the absence and presence of L-Ile.^a Measurement of initial rates was performed in duplicate at 24° C. Conditions: 0.1-10 mM L-Ile, 3 μM DsaD, 50 mM sodium phosphate (pD 8.4), and 0.1 mM PLP in D2O (99.9%). Proteins were exchanged into a 50 mM sodium phosphate-D2O (pD 8.4) solution prior to reaction initiation to minimize proton contamination (<1% H2O). Following quench with MeCN, crude reaction products were subjected to functionalization with Marfey's reagent (L-FDAA) to enable analysis by reverse-phase chromatography and quantification of isotope incorporation by mass spectrometry.
as §1
Quantitation of deuteration in analytical scale reactions: Deuteration reactions were analyzed by UPLC-DAD-MS with single ion recording (SIR) channels set to record a spectrum with the appropriate isotopic mass in positive mode. The area under the curve of recorded SIR peaks was obtained and normalized to account for natural isotopic abundance distributions (e.g. ^13C, ^15N, ^2H, ^34S, etc). Percent deuterium incorporation was calculated by the formula below. […]
Kinetic analysis of biocatalytic L-Ile deuteration: Initial rates of α- or β-deuteration were obtained by means of end-point assay using the quantitation protocol for analytical scale reactions as described above. […] Michaelis constants (KM) for α- and β-deuteration of L-Ile were determined using the concentration range of 0.1-10 mM L-Ile using 3 μM DsaD. […]

For a further data set, the target named is DsaD/DsaE complex (Streptomyces scopuliridis, UniProt A0A0D5CCB2). Described as above. It is filed as biochemical. On the procedure: as §3, §1, §2
Kinetic analysis of biocatalytic L-Ile deuteration: Initial rates of α- or β-deuteration were obtained by means of end-point assay using the quantitation protocol for analytical scale reactions as described above. All reagents were prepared in D2O (99.9% D) and protein stocks were dialyzed (3 exchanges over 3 h at 4° C.) into 50 mM sodium phosphate buffer dissolved in D2O (pD 8.4) using a slide-a-lyzer device with a 3,000 Da cutoff. Reactions were performed at 25° C. in 1 mL Eppendorf tubes. Michaelis constants (KM) for α- and β-deuteration of L-Ile were determined using the concentration range of 0.1-10 mM L-Ile using 3 μM DsaD. Partner protein (DsaE) concentrations were consistent within each experiment and separate experiments were performed using varied equivalents of partner protein (0-50 equiv). Initial velocities were measures in duplicate or triplicate for at least 6 different substrate concentrations for each set of conditions tested. Measurements of the impact of partner protein (DsaE) concentration on the initial rate of β-deuteration were carried out using 1 mM L-Ile, 3 μM DsaD and varying DsaE concentrations between 3 μM-600 μM (1-200 equiv). Under the minimal proton contamination conditions of this assay (99.9% D2O), Cα and Cβ deuteration are assumed to have occurred without back transfer to proton. The data were fit using the Michaelis-Menten equation implemented in Prism.

Setting [4] is: DsaD and DsaE clarified lysates, D2O, 5% 1H-water.
[5] abbreviates: lower substrate loading (10 mM).

Sequence of DsaD/DsaE complex (A0A0D5CBB6 entry or part of it, one chain of several): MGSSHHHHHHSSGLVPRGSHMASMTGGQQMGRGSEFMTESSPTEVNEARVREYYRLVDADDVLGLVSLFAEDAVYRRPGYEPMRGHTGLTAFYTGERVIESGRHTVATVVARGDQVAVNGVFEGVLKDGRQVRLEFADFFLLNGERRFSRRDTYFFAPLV

Consider `[2H]C([2H])(C(C)C)[C@]([2H])(N)C(=O)O` [L-Leu-2,3,3-d3], for which, in the data set with DsaD/E complex [1] (setting [4]), the “deuterium incorporation at Cα” value is on record as 95% and the “deuterium incorporation at Cβ” value is listed as 86%.

On to `[2H]C([2H])(c1ccccc1)[C@]([2H])(N)C(=O)O` [L-Phe-2,3,3-d3], for which, in the data set on DsaD/E complex [1] (setting [5]), the “deuterium incorporation at Cα” value was determined as 95% and the “deuterium incorporation at Cβ” value is 85%.

In the case of `CSCC[C@H](N)C(=O)O` [Met, methionine], in the data set with DsaD/E complex [2], the “D-incorporation at Cα” value is given as “high levels of exchange” and the “D-incorporation at Cβ” value is “moderate levels of D-incorporation”.

As to `CSC[C@H](N)C(=O)O` [S-Me-Cys, S-methylcysteine], in the data set on DsaD/E complex [2], the “D-incorporation at Cα” value is “high levels of exchange” and the “D-incorporation at Cβ” value was “moderate levels of D-incorporation”.

On to `N[C@@H](CO)C(=O)O` [Ser], for which the “Cα and Cβ D-incorporation” value with DsaD/E complex [2] was “did not undergo any deuteration”.

On to `C[C@@H](O)[C@H](N)C(=O)O` [Thr, threonine], for which, on DsaD, the “substrate binding to DsaD by UV-vis” value is reported as “no binding was observed”. In the data set with DsaD/E complex [2], the “Cα and Cβ D-incorporation” value is “did not undergo any deuteration”.

On to `N[C@@H](Cc1c[nH]c2ccccc12)C(=O)O` [Trp, tryptophan], for which, in the data set with DsaD/E complex [2], the “D-incorporation at Cα” value is “underwent Cα-deuteration” and the “D-incorporation at Cβ” value is “no Cβ-deuteration”.

As for `CO[C@H](C)[C@H](N)C(=O)O` [compound 30, L-(OMe)-Thr], the “substrate binding to DsaD by UV-vis” value on DsaD is on record as “enables productive binding”. In the data set on DsaD/E complex [2], the “D-incorporation at Cα” value is listed as “high levels of deuteration”; the “D-incorporation at Cβ” value is “moderate deuterium incorporation and scrambling of configuration”.

Regarding `COc1ccc(C[C@H](N)C(=O)O)cc1` [compound 34, (OMe)-L-Tyr], in the data set with DsaD/E complex [2], the “D-incorporation at Cα” value was 99% and the “D-incorporation at Cβ” value was 74%.

In the case of `CC(C)CCN` [isopentylamine], the “Cα and Cβ D-incorporation” value with DsaD/E complex [2] was “Neither of these substrates underwent deuteration”.

With `CC[C@H](C)[C@H](N)C(=O)OC` [methyl ester of Ile], the “Cα and Cβ D-incorporation” value in the data set on DsaD/E complex [2] is “Neither of these substrates underwent deuteration”.

B1: DsaD/DsaE complex (Streptomyces scopuliridis) (protein)
chain: MGSSHHHHHHSSGLVPRGSHMASMTGGQQMGRGSEFMHIVTTPVARPLTAQERTERCAAPAFGTAFTEHMVSARWNPEQGWHDAELVPYGPLLLDPATVGLHYGQVVFEGLKAFRSHTGEVAVFRPDAHAERMRASARRLMMPEPPEELFLAAVDALVAQDQEWIPDDPGMSLYLRPILFASERTLALRPAREYRFLLVAFITEGYFGPAQRPVRVWVTDEYSRAAAGGTGAAKCAGNYAGSLLAQEEAQRKGCDQVVWLDPVERNWVEEMGGMNLFFVYEAGGSARLVTPPLTGSLLPGVTRDALLRLAPTLGVPVSEAPLSLEQWRADCASGAITEVFACGTAARISPVNEVSTKDGSWTIGAGAPAEGGVAAGEVTGRLSAALFGIQRGELPDSHSWMRPVSPARQSAIT
On to B1, for which the Km in data set [3] (other: 5 equiv. of DsaE (5:1 DsaE:DsaD)) turned out to be 200 ± 10 µM; in data set [3] (other: 50 equiv. of DsaE (50:1 DsaE:DsaD)), 300 ± 90 µM; in data set [3] (other: one equivalent of DsaE, 3 μM DsaD), 2400 ± 680 µM; in data set [3] (other: with DsaE bound), 120 ± 20 µM.

B2: DsaE: small partner protein of aminotransferase DsaD, SEQ ID NO: 3, Streptomyces scopuliridis (protein, listed as Streptomyces scopuliridis)
chain: MTESSPTEVNEARVREYYRLVDADDVLGLVSLFAEDAVYRRPGYEPMRGHTGLTAFYTGERVIESGRHTVATVVARGDQVAVNGVFEGVLKDGRQVRLEFADFFLLNGERRFSRRDTYFFAPLV
modifications: DsaE
For the molecule B2, the Km with DsaD/DsaE complex (1 mM L-Ile, 3 μM DsaD, initial rate of Cβ-deuteration vs DsaE, read-out: KM for the formation of the active DsaD/DsaE complex) came to 40 ± 5 µM. Further, the “DsaE concentration at plateau of Cβ-deuteration rate” value with DsaD/DsaE complex (1 mM L-Ile, 3 μM DsaD, 100:1 ratio) is recorded as “around 0.3 mM”. The “KM for association of DsaD and DsaE” value with DsaD/DsaE complex (as restated in conclusions) came to 40 µM.
